Results taken from patent publication US8163771B2, “11 β-HSD1 modulators” (Exelixis, Inc., priority 2008, dated 2012).

The compounds below were run against T1, recombinant human 11 β-HSD1 (Homo sapiens, UniProt P28845) (assay: 11 β-HSD1 SPA Assay (Scintillation Proximity Assay)).
T1 construct: made in house; host or cells: E. coli
T1 sequence (P28845 whole entry): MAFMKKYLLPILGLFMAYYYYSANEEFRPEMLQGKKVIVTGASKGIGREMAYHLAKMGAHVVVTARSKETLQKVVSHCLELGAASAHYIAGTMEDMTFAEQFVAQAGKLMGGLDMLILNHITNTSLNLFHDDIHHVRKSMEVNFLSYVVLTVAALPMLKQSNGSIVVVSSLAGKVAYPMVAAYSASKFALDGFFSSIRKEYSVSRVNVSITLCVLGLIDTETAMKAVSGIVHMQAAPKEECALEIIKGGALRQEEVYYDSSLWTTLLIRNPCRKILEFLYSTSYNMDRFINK
Type: biochemical
Procedure, shortened: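 Scintillation proximity read-out of cortisol formed from 40 nM [3H]cortisone by purified recombinant human enzyme (30-100 nM, E. coli) with 1 mM NADPH, pH7.4, 2 hours at room temperature; beads with cortisol antibody and glycyrrhetinic acid stop the reaction, read next day. IC50 derived from inhibition normalised to background and maximal wells.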
In the case of `CC(C)(Oc1ccc(F)cc1C(F)(F)F)C(=O)N[C@H]1C[C@H]2CC[C@@H](C1)N2c1ccc(S(N)(=O)=O)cn1` [Example 177, N-{8-[5-(aminosulfonyl)pyridin-2-yl]-8-azabicyclo[3.2.1]oct-3-endo-yl}-2-{[4-fluoro-2-(trifluoromethyl)phenyl]oxy}-2-methylpropanamide], the IC50 is reported as < 200 nM.
In the case of `CC(C)(Oc1c(Cl)cc(F)cc1Cl)C(=O)N[C@H]1C[C@H]2CC[C@@H](C1)N2c1ccc(S(C)(=O)=O)cn1` [Example 178, 2-[(2,6-dichloro-4-fluorophenyl)oxy]-2-methyl-N-{8-[5-(methylsulfonyl)pyridin-2-yl]-8-azabicyclo[3.2.1]oct-3-endo-yl}propanamide], the IC50 is reported as < 200 nM.
With `CC(C)(Oc1c(Cl)cc(F)cc1C(F)(F)F)C(=O)N[C@H]1C[C@H]2CC[C@@H](C1)N2c1ccc(S(C)(=O)=O)cn1` [Example 179, 2-{[2-chloro-4-fluoro-6-(trifluoromethyl)phenyl]oxy}-2-methyl-N-{8-{5-(methylsulfonyl)pyridin-2-yl]-8-azabicyclo[3.2.1]oct-3-endo-yl}propanamide] the IC50 was < 200 nM.
With `COc1ccc(OC(C)(C)C(=O)N[C@H]2C[C@H]3CC[C@@H](C2)N3c2ccc(S(C)(=O)=O)cn2)cc1` [Example 180, 2-methyl-2-{[4-(methyloxy)phenyl]oxy}-N-{8-[5-(methylsulfonyl)pyridin-2-yl]-8-azabicyclo[3.2.1]oct-3-endo-yl}propanamide] the IC50 was < 200 nM.
In the case of `COc1ccc(OC(C)(C)C(=O)N[C@H]2C[C@H]3CC[C@@H](C2)N3c2ccc(S(N)(=O)=O)cn2)cc1` [Example 181, N-{8-[5-(aminosulfonyl)pyridin-2-yl]-8-azabicyclo[3.2.1]oct-3-endo-yl}-2-methyl-2-{[4-(methyloxy)phenyl]oxy}propanamide], the IC50 is reported as < 200 nM.
In the case of `COc1ccc(OC(C)(C)C(=O)N[C@H]2C[C@H]3CC[C@@H](C2)N3c2ccc(S(C)(=O)=O)cc2)cc1` [Example 182, 2-methyl-2-{[4-(methyloxy)phenyl]oxy}-N-{8-[4-(methylsulfonyl)phenyl]-8-azabicyclo[3.2.1]oct-3-endo-yl}propanamide], the IC50 is reported as < 2000 nM.
With `CC(C)(Oc1ccc(C(F)(F)F)cc1Cl)C(=O)N[C@H]1C[C@H]2CC[C@@H](C1)N2c1ccc(C(N)=O)cn1` [Example 183, 6-{3-endo-[(2-{[2-chloro-4-(trifluoromethyl)phenyl]oxy}-2-methylpropanoyl)amino]-8-azabicyclo[3.2.1]oct-8-yl}pyridine-3-carboxamide] the IC50 was < 200 nM.
`CC(C)(Oc1ccc(C(F)(F)F)cc1Cl)C(=O)N[C@H]1C[C@H]2CC[C@@H](C1)N2c1ccc(C(=O)NCC(F)(F)F)cn1` [Example 184, 6-{3-endo-[(2-{[2-chloro-4-(trifluoromethyl)phenyl]oxy}-2-methylpropanoyl)amino]-8-azabicyclo[3.2.1]oct-8-yl}-N-(2,2,2-trifluoroethyl)pyridine-3-carboxamide] was tested, and the IC50 was < 200 nM.
For `CC(C)(Oc1ccc(Cl)c(C(F)(F)F)c1)C(=O)N[C@H]1C[C@H]2CC[C@@H](C1)N2c1ccc(C(N)=O)cn1` [Example 185], the IC50 was < 200 nM.
`CC(C)(Oc1ccc(Cl)c(C(F)(F)F)c1)C(=O)N[C@H]1C[C@H]2CC[C@@H](C1)N2c1ccc(C(=O)NCC(F)(F)F)cn1` [Example 186, 6-{3-endo-[(2-{[4-chloro-3-(trifluoromethyl)phenyl]oxy}-2-methylpropanoyl)amino]-8-azabicyclo[3.2.1]oct-8-yl}-N-(2,2,2-trifluoroethyl)pyridine-3-carboxamide] was tested, and the IC50 was < 200 nM.
In the case of `CC(C)(Oc1ccc(F)c(C(F)(F)F)c1)C(=O)N[C@H]1C[C@H]2CC[C@@H](C1)N2c1ccc(C(N)=O)cn1` [Example 187, 6-{3-endo-[(2-{[4-fluoro-3-(trifluoromethyl)phenyl]oxy}-2-methylpropanoyl)amino]-8-azabicyclo[3.2.1]oct-8-yl}pyridine-3-carboxamide], the IC50 is reported as < 200 nM.
With `CC(C)(Oc1ccc(F)c(C(F)(F)F)c1)C(=O)N[C@H]1C[C@H]2CC[C@@H](C1)N2c1ccc(C(=O)NCC(F)(F)F)cn1` [Example 188, 6-{3-endo-[(2-{[4-fluoro-3-(trifluoromethyl)phenyl]oxy}-2-methylpropanoyl)amino]-8-azabicyclo[3.2.1]oct-8-yl}-N-(2,2,2-trifluoroethyl)pyridine-3-carboxamide] the IC50 was < 200 nM.
With `CC(C)(Oc1cc(C(F)(F)F)ccc1F)C(=O)N[C@H]1C[C@H]2CC[C@@H](C1)N2c1ccc(C(N)=O)cn1` [Example 189, 6-{3-endo-[(2-{[2-fIuoro-5-(trifluoromethyl)phenyl]oxy}-2-methylpropanoyl)amino]-8-azabicyclo[3.2.1]oct-8-yl}pyridine-3-carboxamide] the IC50 was < 200 nM.
With `CC(C)(Oc1cc(C(F)(F)F)ccc1F)C(=O)N[C@H]1C[C@H]2CC[C@@H](C1)N2c1ccc(C(=O)NCC(F)(F)F)cn1` [Example 190, 6-{3-endo-[(2-{[2-fluoro-5-(trifluoromethyl)phenyl]oxy}-2-methylpropanoyl)amino]-8-azabicyclo[3.2.1]oct-8-yl}-N-(2,2,2-trifiuoroethyl)pyridine-3-carboxamide] the IC50 was < 200 nM.
With `CC(C)(Oc1ncc(Cl)cc1Cl)C(=O)N[C@H]1C[C@H]2CC[C@@H](C1)N2c1ccc(S(N)(=O)=O)cn1` [Example 191, N-{8-[5-(aminosulfonyl)pyridin-2-yl]-8-azabicyclo[3.2.1]oct-3-endo-yl}-2-[(3,5-dichloropyridin-2-yl)oxy]-2-methylpropanamide] the IC50 was < 200 nM.
With `CC(C)(Oc1ccc(C(F)(F)F)cn1)C(=O)N[C@H]1C[C@H]2CC[C@@H](C1)N2c1ccc(S(N)(=O)=O)cc1` [Example 192, N-{8-[4-(aminosulfonyl)phenyl]-8-azabicyclo[3.2.1]oct-3-endo-yl}-2-methyl-2-{[5-(trifluoromethyl)pyridin-2-yl]oxy}propanamide] the IC50 was < 2000 nM.
With `CC(C)(Oc1ncc(Cl)cc1Cl)C(=O)N[C@H]1C[C@H]2CC[C@@H](C1)N2c1ccc(S(C)(=O)=O)cn1` [Example 193, 2-[(3,5-dichloropyridin-2-yl)oxy]-2-methyl-N-{8-[5-(methylsulfonyl)pyridin-2-yl]-8-azabicyclo[3.2.1]oct-3-endo-yl}propanamide] the IC50 was < 200 nM.
In the case of `CC(C)(Oc1ncc(Cl)cc1F)C(=O)N[C@H]1C[C@H]2CC[C@@H](C1)N2c1ccc(S(C)(=O)=O)cn1` [Example 194, 2-[(5-chloro-3-fluoropyridin-2-yl)oxy]-2-methyl-N-{8-[5-(methylsulfonyl)pyridin-2-yl]-8-azabicyclo[3.2.1]oct-3-endo-yl}propanamide], the IC50 is reported as < 2000 nM.
For `CC(C)(Oc1ncc(Cl)cc1F)C(=O)N[C@H]1C[C@H]2CC[C@@H](C1)N2c1ccc(S(C)(=O)=O)cc1` [Example 195, 2-[(5-chloro-3-fluoropyridin-2-yl)oxy]-2-methyl-N-{8-[4-(methylsulfonyl)phenyl]-8-azabicyclo[3.2.1]oct-3-endo-yl}propanamide], the IC50 was < 2000 nM.
In the case of `CC(C)(Oc1ccc(C(F)(F)F)cn1)C(=O)N[C@H]1C[C@H]2CC[C@@H](C1)N2c1ccc(S(C)(=O)=O)cc1` [Example 196, 2-methyl-N-{8-[4-(methylsulfonyl)phenyl]-8-azabicyclo[3.2.1]oct-3-endo-yl}-2-{[5-(trifluoromethyl)pyridin-2-yl]oxy}propanamide], the IC50 is reported as < 2000 nM.
For `CC(C)(Oc1cc(Cl)c(Cl)cc1Cl)C(=O)N[C@H]1C[C@H]2CC[C@@H](C1)N2c1ccc(S(C)(=O)=O)cn1` [Example 197, 2-methyl-N-{8-[5-(methylsulfonyl)pyridin-2-yl]-8-azabicyclo[3.2.1]oct-3-endo-yl}-2-[(2,4,5-trichlorophenyl)oxy]propanamide], the IC50 was < 200 nM.
For `CC(C)(Oc1cc(Cl)c(Cl)cc1Cl)C(=O)N[C@H]1C[C@H]2CC[C@@H](C1)N2c1ccc(S(N)(=O)=O)cn1` [Example 198, N-{8-[5-(aminosulfonyl)pyridin-2-yl]-8-azabicyclo[3.2.1]oct-3-endo-yl}-2-methyl-2-[(2,4,5-trichlorophenyl)oxy]propanamide], the IC50 was < 200 nM.
In the case of `CC(C)(Oc1cc(Cl)c(Cl)cc1Cl)C(=O)N[C@H]1C[C@H]2CC[C@@H](C1)N2c1ccc(S(C)(=O)=O)cc1` [Example 199, 2-methyl-N-{8-[4-(methylsulfonyl)phenyl]-8-azabicyclo[3.2.1]oct-3-endo-yl}-2-[(2,4,5-trichlorophenyl)oxy]propanamide], the IC50 is reported as < 200 nM.
For `CC(C)(Oc1ccc(F)cc1F)C(=O)N[C@H]1C[C@H]2CC[C@@H](C1)N2c1ccc(S(C)(=O)=O)cn1` [Example 200, 2-[(2,4-difluorophenyl)oxy]-2-methyl-N-{8-[5-(methylsulfonyl)pyridin-2-yl]-8-azabicyclo[3.2.1]oct-3-endo-yl}propanamide], the IC50 was < 200 nM.
With `CC(C)(Oc1ccc(Cl)cc1)C(=O)N[C@H]1C[C@H]2CC[C@@H](C1)N2c1ccc(S(C)(=O)=O)cn1` [Example 201, 2-[(4-chlorophenyl)oxy]-2-methyl-N-{8-[5-(methylsulfonyl)pyridin-2-yl]-8-azabicyclo[3.2.1]oct-3-endo-yl}propanamide] the IC50 was < 200 nM.
For `CC(C)(Oc1ccc(Cl)cc1)C(=O)N[C@H]1C[C@H]2CC[C@@H](C1)N2c1ccc(S(N)(=O)=O)cn1` [Example 202, N-{8-[5-(aminosulfonyl)pyridin-2-yl]-8-azabicyclo[3.2.1]oct-3-endo-yl}-2-[(4-chlorophenyl)oxy]-2-methylpropanamide], the IC50 was < 200 nM.
In the case of `CC(C)(Oc1ccc(Cl)cc1)C(=O)N[C@H]1C[C@H]2CC[C@@H](C1)N2c1ccc(S(C)(=O)=O)cc1` [Example 203, 2-[(4-chlorophenyl)oxy]-2-methyl-N-{8-[4-(methylsulfonyl)phenyl]-8-azabicyclo[3.2.1]oct-3-endo-yl}propanamide], the IC50 is reported as < 2000 nM.
In the case of `CC(C)(Oc1ccc(Cl)c(Cl)c1)C(=O)N[C@H]1C[C@H]2CC[C@@H](C1)N2c1ccc(S(C)(=O)=O)cn1` [Example 204, 2-[(3,4-dichlorophenyl)oxy]-2-methyl-N-{8-[5-(methylsulfonyl)pyridin-2-yl]-8-azabicyclo[3.2.1]oct-3-endo-yl}propanamide], the IC50 is reported as < 200 nM.
